Results reported in patent US20230243825A1, “ADAPTIVE NANOPARTICLE PLATFORMS FOR HIGH THROUGHPUT EXPANSION AND DETECTION OF ANTIGEN-SPECIFIC T CELLS” (The Johns Hopkins University, priority 2020, published 2023).

Assays:
[1] = tested on: SIY and VDW-specific CD8+ T cells; experiment: In vivo peptide vaccination with poly I:C, dimer staining; design: species or system mouse; details: Day 0 and Day 7, harvest Day 15
Description: On Day 15, mouse spleens and lymph nodes were harvested for dimer and particle staining, following similar protocols described above.

[2] = tested on: B16-OVA tumor cells; experiment: IFN-γ pre-incubation of tumor cells; format: cell-based; details: overnight pre-incubation
Description: Whether this same approach can be expanded to other tumor models was then examined by applying it to B16-OVA. Initial results were inconclusive, so an attempt to increase the amount of recoverable peptide was made by pre-incubating tumor cells overnight with IFN-γ to upregulate MHC I on their surface. […] The calculated yield was approximately […] of peptide per 1×10^4 tumor cells, still roughly 0.00002% (w/w) of the eluted 100 micrograms of peptide.

Substance: VDWENVSPEL
- peptide-specific CD8+ T cells, dimer staining pre- vs post-vaccination [1]: significant increases

Substance: IFNγ
- MHC I expression on tumor cells [2]: drastically increased

Substance: SIYRYYGL
- peptide-specific CD8+ T cells, dimer staining pre- vs post-vaccination [1]: significant increases
